Results taken from patent publication US20060111306A1, “DEHYDROEPHIANDROSTERONE AND UBIQUINONE COMPOSITIONS FOR TREATING ASTHMA AND BRONOCONSTRICTION” (priority 1995, published 2006).

System: Intracellular Adenosine in Various Rat Tissues
Assay: In vivo effect on tissue adenosine levels (HPLC of 1,N6-ethenoadenosine)
Parameters: species or system Fischer 344 rats
Details: rats
Experimental: Folinic acid (50 mg/kg) was administered intraperitoneally once daily for fourteen days. […] Hearts were removed from animals and flash frozen in liquid nitrogen with 10 seconds of death. Liver and lungs were removed en bloc and flash frozen with 30 seconds of death. Brain tissue was subsequently dissected.

Nc1nc(=O)c2c([nH]1)NCC(CNc1ccc(C(=O)N[C@@H](CCC(=O)O)C(=O)O)cc1)N2C=O (mixture of isomers) [Folinic Acid (F.A.), Folinic acid]
effect on adenosine levels, administered alone (in words) (folinic acid alone, all organs studied): increase in adenosine levels for all organs studied
effect of co-administration on steroid-mediated adenosine depletion (in words) (folinic acid co-administered with DHEA or methyltestosterone): completely abrogated steroid-mediated adenosine depletion
